Laboratory results from patent US7238694B2, “Rifamycin imino derivatives effective against drug-resistant microbes” (Cumbre Pharmaceuticals, Inc., priority 2004, dated 2007).
≈ marks a conversion by molar mass, not a printed value.

Tests used:
Format in all cases: cell-based
[1] = system: Staphylococcus aureus ATCC29213 rpoB^H418Y; assay: microbe, parasite or virus in culture; conditions: Staphylococcus aureus, ATCC29213; rifR strain; Cation-Adjusted Mueller-Hinton Broth, 37° C.; read-out: MIC
[2] = system: Streptococcus pyogenes ATCC19615; assay: MIC, microbroth dilution (NCCLS); conditions: rifS strain, THY Broth, 37° C., read-out: MIC
[3] = system: Streptococcus pneumoniae ATCC6303; assay: MIC, microbroth dilution (NCCLS); conditions: rifS strain, THY Broth with 1 mg/mL catalase, 5% CO2, 37° C., read-out: MIC
[4] = system: Haemophilus influenzae ATCC10211; assay: MIC, microbroth dilution (NCCLS); conditions: rifS strain, BHI Broth with NAD and hematin, 37° C., read-out: MIC
[5] = system: Staphylococcus aureus ATCC29213; assay: MIC, microbroth dilution (NCCLS); conditions: rifS strain, Cation-Adjusted Mueller-Hinton Broth, 37° C., read-out: MIC
[6] = system: Staphylococcus aureus MT1222 gyrA^A116E grlB^S80F; assay: microbe, parasite or virus in culture; conditions: cipR strain, Cation-Adjusted Mueller-Hinton Broth, 37° C., read-out: MIC
[7] = system: Staphylococcus epidermidis ATCC12228; assay: MIC, microbroth dilution (NCCLS); conditions: rifS strain, Cation-Adjusted Mueller-Hinton Broth, 37° C., read-out: MIC

With COc1c(N2CCC(C(C)NC3CCN(/N=C/c4c5c(O)c6c(O)c(C)c7c(c6c4O)C(=O)[C@@](C)(O/C=C/[C@H](OC)[C@@H](C)[C@@H](OC(C)=O)[C@H](C)[C@H](O)[C@H](C)[C@@H](O)[C@@H](C)/C=C/C=C(/C)C(=O)N5)O7)CC3)C2)c(F)cc2c(=O)c(C(=O)O)cn(C3CC3)c12 (mixture of isomers) [Example 41, 3-{4-[1-(3-Carboxy-1-cyclopropyl-6-fluoro-8-methoxy-4-oxo-1,4-dihydroquinolin-7-yl)-pyrrolidin-3-yl-ethylamino]-piperidin-1-yl-aminomethylenyl}-rifamycin SV] the MIC [1] was 0.06 to 16 µg/mL, the MIC [2] was 0.008 to 0.03 µg/mL and the MIC [3] was 0.008 to 0.06 µg/mL. The MIC [4] was 0.125 to 4 µg/mL, the MIC [5] was 0.008 to 1 µg/mL and the MIC [6] was 0.008 to 0.125 µg/mL. It also gave an MIC [7] of 0.008 to 0.1 µg/mL.

Compound CO[C@H]1/C=C/O[C@@]2(C)Oc3c(C)c(O)c4c(O)c(c(/C=N/NC5CCN(c6c(F)cc7c(=O)c(C(=O)O)cn(C8CC8)c7c6Cl)C5)c(O)c4c3C2=O)NC(=O)/C(C)=C\C=C\[C@H](C)[C@H](O)[C@@H](C)[C@@H](O)[C@@H](C)[C@H](OC(C)=O)[C@@H]1C (mixture of isomers) [Example 6, (R/S)-3-[1-(8-chloro-3-carboxy-1-cyclopropyl-6-fluoro-4-oxo-1,4-dihydroquinolin-7-yl)-pyrrolidin-3-ylhydrazinomethylenyl]rifamycin SV] has an MIC [1] of 0.06 to 16 µg/mL (≈ 0.0551 to 14.7 µM), an MIC [2] of 0.008 to 0.03 µg/mL (≈ 0.00735 to 0.0276 µM) and an MIC [3] of 0.008 to 0.06 µg/mL (≈ 0.00735 to 0.0551 µM). The MIC [4] was 0.125 to 4 µg/mL (≈ 0.115 to 3.67 µM), the MIC [5] was 0.008 to 1 µg/mL (≈ 0.00735 to 0.919 µM) and the MIC [6] was 0.008 to 0.125 µg/mL (≈ 0.00735 to 0.115 µM). The MIC [7] was 0.008 to 0.1 µg/mL (≈ 0.00735 to 0.0919 µM).

COc1c(N2CCN(/N=C/c3c4c(O)c5c(O)c(C)c6c(c5c3O)C(=O)[C@@](C)(O/C=C/[C@H](OC)[C@@H](C)[C@@H](OC(C)=O)[C@H](C)[C@H](O)[C@H](C)[C@@H](O)[C@@H](C)/C=C/C=C(/C)C(=O)N4)O6)C(C)C2)c(F)cc2c(=O)c(C(=O)O)cn(C3CC3)c12 (mixture of isomers) [Example 7, (R/S)-3-[4-(3-Carboxy-1-cyclopropyl-6-fluoro-8-methoxy-4-oxo-1,4-dihydroquinolin-7-yl)-2-methyl-piperazin-1-yl-aminomethylenyl]rifamycin SV] showed an MIC [1] of 0.06 to 16 µg/mL (≈ 0.0546 to 14.6 µM), an MIC [2] of 0.008 to 0.03 µg/mL (≈ 0.00728 to 0.0273 µM) and an MIC [3] of 0.008 to 0.06 µg/mL (≈ 0.00728 to 0.0546 µM). It also gave an MIC [4] of 0.125 to 4 µg/mL (≈ 0.114 to 3.64 µM), an MIC [5] of 0.008 to 1 µg/mL (≈ 0.00728 to 0.911 µM) and an MIC [6] of 0.008 to 0.125 µg/mL (≈ 0.00728 to 0.114 µM). For the same compound, the MIC [7] was 0.008 to 0.1 µg/mL (≈ 0.00728 to 0.0911 µM).

For CCn1cc(C(=O)O)c(=O)c2cc(F)c(N3CCN(/N=C/c4c5c(O)c6c(O)c(C)c7c(c6c4O)C(=O)[C@@](C)(O/C=C/[C@H](OC)[C@@H](C)[C@@H](OC(C)=O)[C@H](C)[C@H](O)[C@H](C)[C@@H](O)[C@@H](C)/C=C/C=C(/C)C(=O)N5)O7)C(C)C3)c(F)c21 (mixture of isomers) [Example 8, (R/S)-3-[4-(3-Carboxy-1-ethyl-6,8-difluoro-8-4-oxo-1,4-dihydroquinolin-7-yl)-2-methyl-piperazin-1-yl-aminomethylenyl]rifamycin SV], the MIC [1] was 0.06 to 16 µg/mL (≈ 0.0559 to 14.9 µM), the MIC [2] was 0.008 to 0.03 µg/mL (≈ 0.00745 to 0.0279 µM) and the MIC [3] was 0.008 to 0.06 µg/mL (≈ 0.00745 to 0.0559 µM). It also gave an MIC [4] of 0.125 to 4 µg/mL (≈ 0.116 to 3.72 µM), an MIC [5] of 0.008 to 1 µg/mL (≈ 0.00745 to 0.931 µM) and an MIC [6] of 0.008 to 0.125 µg/mL (≈ 0.00745 to 0.116 µM). The MIC [7] was 0.008 to 0.1 µg/mL (≈ 0.00745 to 0.0931 µM).

CO[C@H]1/C=C/O[C@@]2(C)Oc3c(C)c(O)c4c(O)c(c(/C=N/NC5CCN(c6nc7c(cc6F)c(=O)c(C(=O)O)cn7-c6ccc(F)cc6F)C5)c(O)c4c3C2=O)NC(=O)/C(C)=C\C=C\[C@H](C)[C@H](O)[C@@H](C)[C@@H](O)[C@@H](C)[C@H](OC(C)=O)[C@@H]1C (mixture of isomers) [Example 9, (R/S)-3-[1-[3-Carboxy-1-(2,4-difluoro-phenyl)-6-fluoro-4-oxo-1,4-dihydro-[1,8]naphthyridin-7-yl]-pyrrolidinyl-3-hydrazinomethylenyl]rifamycin SV] showed an MIC [1] of 0.06 to 16 µg/mL (≈ 0.0532 to 14.2 µM), an MIC [2] of 0.008 to 0.03 µg/mL (≈ 0.0071 to 0.0266 µM) and an MIC [3] of 0.008 to 0.06 µg/mL (≈ 0.0071 to 0.0532 µM). The MIC [4] was 0.125 to 4 µg/mL (≈ 0.111 to 3.55 µM), the MIC [5] was 0.008 to 1 µg/mL (≈ 0.0071 to 0.887 µM) and the MIC [6] was 0.008 to 0.125 µg/mL (≈ 0.0071 to 0.111 µM). It also gave an MIC [7] of 0.008 to 0.1 µg/mL (≈ 0.0071 to 0.0887 µM).

Work on CO[C@H]1/C=C/O[C@@]2(C)Oc3c(C)c(O)c4c(O)c(c(/C=N/N(C5CCN(C)CC5)C5CCN(c6cc7c(cc6F)c(=O)c(C(=O)O)cn7C6CC6)C5)c(O)c4c3C2=O)NC(=O)/C(C)=C\C=C\[C@H](C)[C@H](O)[C@@H](C)[C@@H](O)[C@@H](C)[C@H](OC(C)=O)[C@@H]1C (mixture of isomers) [Example 11, (R/S)-3-[1-(3-Carboxy-1-cyclopropyl-6-fluoro-4-oxo-1,4-dihydroquinolin-7-yl)-pyrrolidin-3-yl-N′-(1-methyl-piperidin-4-yl)-hydrazinomethylenyl]rifamycin SV] yielded an MIC [1] of 0.06 to 16 µg/mL (≈ 0.0521 to 13.9 µM), an MIC [2] of 0.008 to 0.03 µg/mL (≈ 0.00695 to 0.0261 µM) and an MIC [3] of 0.008 to 0.06 µg/mL (≈ 0.00695 to 0.0521 µM). For the same compound, the MIC [4] was 0.125 to 4 µg/mL (≈ 0.109 to 3.47 µM), the MIC [5] was 0.008 to 1 µg/mL (≈ 0.00695 to 0.869 µM) and the MIC [6] was 0.008 to 0.125 µg/mL (≈ 0.00695 to 0.109 µM). For the same compound, the MIC [7] was 0.008 to 0.1 µg/mL (≈ 0.00695 to 0.0869 µM).
